Assay results: US20250282735A1, “BICYCLE COMPOUNDS AS TEAD INHIBITOR” (DONG-A ST CO., LTD., priority 2022, published 2025)

tested on: TEAD reporter-containing human breast cancer cell line MCF7; assay: TEAD reporter (luciferase) assay; format: cell-based; conditions: TEAD reporter MCF7 cells, 24 hours treatment, 1% serum media
Procedure: The TEAD reporter-containing human breast cancer cell line MCF7 (60618, BPS bioscience) was cultured according to the manufacturer's instructions. Cells were plated in 96-well white plates at a density of 30,000 per well and incubated overnight. The following day cells were treated with small molecules in 1% serum media (0.1% v/v DMSO). After 24 hours of the treatment, cell viability was evaluated by using CCK-8 reagent (CK04, Dojindo) and measuring absorbance at 450 nm. Then, the assay for luciferase activity was performed using Dual-Glo® Luciferase Assay System (Promega, E2940) following the manufacturer's instructions. Luminescence intensity was measured and the potency of the compounds was determined by IC50 value generated from non-linear regression analysis of the dose-response curves.
IC50 for luciferase activity are shown in the Table 1 below and designated within the following ranges. [+++: ≤0.1 μM, ++: >0.1 μM to ≤1 μM, +: >1 μM to ≤10 μM, −: >10 μM]

IC50 | Structure (SMILES)
1 to 10 µM | C=CC(=O)Nc1cnc2c(c1)c(/C=C/c1ccc(Cl)cc1)cn2C(C)C [Compound 20, (E)-N-(3-(4-Chlorostyryl)-1-isopropyl-1H-pyrrolo[2,3-b]pyridin-5-yl)acrylamide]
0.1 to 1 µM | C=CC(=O)Nc1cnc2c(c1)c(/C=C/c1ccccc1)cn2C [Compound 45, (E)-N-(1-Methyl-3-styryl-1H-pyrrolo[2,3-b]pyridin-5-yl)acrylamide]
1 to 10 µM | C=CC(=O)Nc1cnc2c(c1)c(/C=C/c1cccc(OC)c1)cn2C [Compound 48, (E)-N-(3-(3-Methoxystyryl)-1-methyl-1H-pyrrolo[2,3-b]pyridin-5-yl)acrylamide]
≤ 0.1 µM | C=CC(=O)Nc1cnc2c(c1)c(-c1cccc(C(F)(F)F)c1)cn2C [Compound 54, N-(1-Methyl-3-(3-(trifluoromethyl)phenyl)-1H-pyrrolo[2,3-b]pyridin-5-yl)acrylamide]
0.1 to 1 µM | C=CC(=O)Nc1cnc2c(c1)c(-c1ccc(SC)cc1)cn2C [Compound 55, N-(1-Methyl-3-(4-(methylthio)phenyl)-1H-pyrrolo[2,3-b]pyridin-5-yl)acrylamide]
1 to 10 µM | C=CC(=O)Nc1cnc2c(c1)c(-c1cccc(C#N)c1)cn2C [Compound 56, N-(3-(3-Cyanophenyl)-1-methyl-1H-pyrrolo[2,3-b]pyridin-5-yl)acrylamide]
1 to 10 µM | C=CC(=O)Nc1cnc2c(c1)c(-c1ccc(C#N)cc1)cn2C [Example 57, N-(3-(4-Cyanophenyl)-1-methyl-1H-pyrrolo[2,3-b]pyridin-5-yl)acrylamide]
0.1 to 1 µM | C=CC(=O)Nc1cnc2c(c1)c(/C=C/c1ccsc1)cn2C [Example 59, (E)-N-(1-Methyl-3-(2-(thiophen-3-yl)vinyl)-1H-pyrrolo[2,3-b]pyridin-5-yl)acrylamide]
1 to 10 µM | C=CC(=O)Nc1cnc2c(c1)c(/C=C/c1ccc3c(c1)OCCO3)cn2C [Example 61, (E)-N-(3-(2-(2,3-Dihydrobenzo[b][1,4]dioxin-6-yl)vinyl)-1-methyl-1H-pyrrolo[2,3-b]pyridin-5-yl)acrylamide]
≤ 0.1 µM | C=CC(=O)Nc1cnc2ccn(Cc3ccc(C(F)(F)F)cc3)c2c1 [Example 76, N-(1-(4-(Trifluoromethyl)benzyl)-1H-pyrrolo[3,2-b]pyridin-6-yl)acrylamide]
0.1 to 1 µM | C=CC(=O)Nc1cnc2ccn(Cc3ccc(F)cc3)c2c1 [Example 78, N-(1-(4-Fluorobenzyl)-1H-pyrrolo[3,2-b]pyridin-6-yl)acrylamide]
0.1 to 1 µM | C=CC(=O)Nc1cnc2c(c1)c(/C=C/c1cccs1)cn2C [Example 82, (E)-N-(1-Methyl-3-(2-(thiophen-2-yl)vinyl)-1H-pyrrolo[2,3-b]pyridin-5-yl)acrylamide]
0.1 to 1 µM | C=CC(=O)Nc1cnc2c(c1)c(-c1cccc(CCC3CCC(F)(F)CC3)c1)cn2C [Example 86, N-(3-(3-(2-(4,4-Difluorocyclohexyl)ethyl)phenyl)-1-methyl-1H-pyrrolo[2,3-b]pyridin-5-yl)acrylamide]
1 to 10 µM | C=CC(=O)Nc1cnc2c(c1)c(-c1ccc(OC)cc1)cn2C [Example 90, N-(3-(4-Methoxyphenyl)-1-methyl-1H-pyrrolo[2,3-b]pyridin-5-yl)acrylamide]
0.1 to 1 µM | C=CC(=O)Nc1cnc2c(c1)c(-c1cccc(Oc3ccccc3)c1)cn2C [Example 94, N-(1-Methyl-3-(3-phenoxyphenyl)-1H-pyrrolo[2,3-b]pyridin-5-yl)acrylamide]
1 to 10 µM | C=CC(=O)Nc1cnc2c(c1)c(C1=CCCCC1)cn2C [Example 101, N-(3-(Cyclohex-1-en-1-yl)-1-methyl-1H-pyrrolo[2,3-b]pyridin-5-yl)acrylamide]
1 to 10 µM | C=CC(=O)Nc1cnc2c(c1)c(-c1ccc(N3CCCCC3)cc1)cn2C [Example 102, N-(1-Methyl-3-(4-(piperidin-1-yl)phenyl)-1H-pyrrolo[2,3-b]pyridin-5-yl)acrylamide]
0.1 to 1 µM | C=CC(=O)Nc1cnc2c(c1)c(-c1ccc(C3CCCCC3)cc1)cn2C [Example 108, N-(3-(4-Cyclohexylphenyl)-1-methyl-1H-pyrrolo[2,3-b]pyridin-5-yl)acrylamide]
1 to 10 µM | C=CC(=O)Nc1cnc2c(c1)c(-c1ccc(C(C)(C)C)cc1)cn2C [Example 109, N-(3-(4-(tert-Butyl)phenyl)-1-methyl-1H-pyrrolo[2,3-b]pyridin-5-yl)acrylamide]
0.1 to 1 µM | C=CC(=O)Nc1cnc2c(c1)c(-c1ccc(CCCC)cc1)cn2C [Example 110, N-(3-(4-Butylphenyl)-1-methyl-1H-pyrrolo[2,3-b]pyridin-5-yl)acrylamide]
> 10 µM | C=CC(=O)Nc1cnc2c(c1)c(-c1ccc(CCCCCCCCC)cc1)cn2C [Example 112, N-(1-Methyl-3-(4-nonylphenyl)-1H-pyrrolo[2,3-b]pyridin-5-yl)acrylamide]
> 10 µM | C=CC(=O)Nc1cnc2c(c1)c(-c1cc(C)c(O)c(C)c1)cn2C [Example 113, N-(3-(4-Hydroxy-3,5-dimethylphenyl)-1-methyl-1H-pyrrolo[2,3-b]pyridin-5-yl)acrylamide]

Continued, molecule first:

Structure (SMILES) | IC50
C=CC(=O)Nc1ccc2c(c1)c(/C=C/c1ccc(Cl)cc1)nn2C(C)C [Compound 6, (E)-N-(3-(4-Chlorostyryl)-1-isopropyl-1H-indazol-5-yl)acrylamide] | > 10 µM
C=CC(=O)Nc1ccc2c(c1)c(/C=C/C1CCC(F)(F)CC1)nn2C1CCCC1 [Compound 7, (E)-N-(1-Cyclopentyl-3-(2-(4,4-difluorocyclohexyl)vinyl)-1H-indazol-5-yl)acrylamide] | 0.1 to 1 µM
C=CC(=O)Nc1ccc2c(c1)c(/C=C/c1ccc(Cl)cc1)nn2C1CCCC1 [Compound 8, (E)-N-(3-(4-Chlorostyryl)-1-cyclopentyl-1H-indazol-5-yl)acrylamide] | 1 to 10 µM
C=CC(=O)Nc1cnc2c(c1)c(/C=C/C1CCC(F)(F)CC1)cn2C1CCCC1 [Compound 9, (E)-N-(1-Cyclopentyl-3-(2-(4,4-difluorocyclohexyl)vinyl)-1H-pyrrolo[2,3-b]pyridin-5-yl)acrylamide] | ≤ 0.1 µM
C=CC(=O)Nc1ccc2c(c1)c(/C=C/c1ccc(Cl)cc1)cn2C1CCCC1 [Compound 11, (E)-N-(3-(4-Chlorostyryl)-1-cyclopentyl-1H-indol-5-yl)acrylamide] | 1 to 10 µM
C=CC(=O)Nc1ccc2c(/C=C/c3ccc(Cl)cc3)cn(C)c2c1 [Compound 12, (E)-N-(3-(4-Chlorostyryl)-1-methyl-1H-indol-6-yl)acrylamide] | 0.1 to 1 µM
C=CC(=O)Nc1ccc2c(c1)c(/C=C/c1ccc(F)cc1)cn2C(C)C [Compound 29, (E)-N-(3-(4-Fluorostyryl)-1-isopropyl-1H-indol-5-yl)acrylamide] | > 10 µM
C=CC(=O)Nc1cc(F)c2c(c1)c(/C=C/C1CCC(F)(F)CC1)cn2C(C)C [Compound 38, (E)-N-(3-(2-(4,4-Difluorocyclohexyl)vinyl)-7-fluoro-1-isopropyl-1H-indol-5-yl)acrylamide] | 1 to 10 µM
C=CC(=O)Nc1cc(F)c2c(c1)c(/C=C/c1ccc(Cl)cc1)cn2C(C)C [Compound 39, (E)-N-(3-(4-Chlorostyryl)-7-fluoro-1-isopropyl-1H-indol-5-yl)acrylamide] | > 10 µM
C=CC(=O)Nc1cnc2c(c1)c(/C=C/C1CCOCC1)cn2C [Example 58, (E)-N-(1-Methyl-3-(2-(tetrahydro-2H-pyran-4-yl)vinyl)-1H-pyrrolo[2,3-b]pyridin-5-yl)acrylamide] | 0.1 to 1 µM
C=CC(=O)Nc1cnc2c(c1)c(/C=C/C1CC1)cn2C [Example 60, (E)-N-(3-(2-Cyclopropylvinyl)-1-methyl-1H-pyrrolo[2,3-b]pyridin-5-yl)acrylamide] | 1 to 10 µM
C=CC(=O)Nc1cnc2c(c1)c(/C=C/C1CC1C(=O)OCC)cn2C (stereo not shown) [Example 62, Ethyl (E)-2-(2-(5-acrylamido-1-methyl-1H-pyrrolo[2,3-b]pyridin-3-yl)vinyl)cyclopropane-1-carboxylate] | > 10 µM
C=CC(=O)N(CC(=O)O)c1cnc2c(c1)c(/C=C/c1ccc(Cl)cc1)cn2C [Example 65, (E)-N-Acryloyl-N-(3-(4-chlorostyryl)-1-methyl-1H-pyrrolo[2,3-b]pyridin-5-yl)glycine] | > 10 µM
C=CC(=O)N(Cc1nn[nH]n1)c1cnc2c(c1)c(/C=C/c1ccc(Cl)cc1)cn2C [Example 69, (E)-N-((2H-Tetrazol-5-yl)methyl)-N-(3-(4-chlorostyryl)-1-methyl-1H-pyrrolo[2,3-b]pyridin-5-yl)acrylamide] | 1 to 10 µM
C=CC(=O)Nc1ccc2c(c1)c(/C=C/c1ccc(Cl)cc1)cn2C(C)=O [Example 75, (E)-N-(1-Acetyl-3-(4-chlorostyryl)-1H-indol-5-yl)acrylamide] | > 10 µM
Cn1cc(/C=C/c2ccc(Cl)cc2)c2cc(NC(=O)CC#N)cnc21 [Example 115, (E)-N-(3-(4-chlorostyryl)-1-methyl-1H-pyrrolo[2,3-b]pyridin-5-yl)-2-cyanoacetamide] | > 10 µM
C=CS(=O)(=O)Nc1cnc2c(c1)c(/C=C/c1ccc(Cl)cc1)cn2C [Example 116, (E)-N-(3-(4-Chlorostyryl)-1-methyl-1H-pyrrolo[2,3-b]pyridin-5-yl) ethenesulfonamide] | 0.1 to 1 µM
Cn1cc(/C=C/c2ccc(Cl)cc2)c2cc(NS(C)(=O)=O)cnc21 [Example 117, (E)-N-(3-(4-Chlorostyryl)-1-methyl-1H-pyrrolo[2,3-b]pyridin-5-yl) methanesulfonamide] | 0.1 to 1 µM
